Assay results from patent US8710045B2, “Agents for preventing and treating disorders involving modulation of the ryanodine receptors” (The Trustees of Columbia University in the City of New York, priority 2004, dated 2014).
Values joined by “and” are separate entries in the source; they are usually repeats but may differ in a detail not shown here. Equal entries are not always repeated. Where two headings read alike, the source gives them in different places.

Tests used:
hERG = hERG (Homo sapiens, UniProt Q12809); experiment: hERG current, manual whole-cell patch clamp in hERG-transfected HEK 293 cells (Example 5); type: cell-based; design: expressed in transfected cells; host or cells: HEK 293; settings: human, HEK 293 cells stably transfected with hERG cDNA
Method: (§1) Electrophysiological recordings (using the whole-cell patch clamp method) were performed at room temperature (18° C.-24° C.). Each cell acted as its own control. The effect of ARM0036 was evaluated at two concentrations: 10 and 100 μM. Each concentration was tested in at least three cells (n≧3). 90 nM Cisapride (commercially available from TOCRIS Bioscience) was used as a positive control for hERG blockade. For recording, cells were transferred to the recording chamber and superfused with vehicle control solution. The patch pipette solution for whole cell recording contained 130 mM potassium aspartate, 5 mM MgCl2, 5 mM EGTA, 4 mM ATP and 10 mM HEPES. The pH was adjusted to 7.2 with KOH. The pipette solution was prepared in batches, aliquoted, and stored frozen. A fresh aliquot was thawed and used each day. Patch pipettes were made from glass capillary tubing using a P-97 micropipette puller (Sutter Instruments, Novato, Calif.). A commercial patch clamp amplifier was used for whole cell recordings. Before digitization, current records were low-pass filtered at one-fifth of the sampling frequency.

hERG current [1] = biological target: T1, hERG current (Homo sapiens, UniProt Q12809); experiment: as above; type: cell-based; design: expressed in transfected cells; host or cells: HEK 293
Method: as §1

hERG current [2] = biological target: T1, hERG current; experiment: hERG current, PatchXpress 7000A automatic parallel patch clamp in hERG-transfected HEK 293 cells (Example 6); settings: for Individual Data (% Inhibition): single cell
Method: HEK293 cells were transfected with a plasmid containing the hERG cDNA and a neomycin resistance gene. Stable transfectants were selected by culturing the cells in the presence of G418. The selection pressure was maintained by continued culture in the presence of G418. […] Cells for use in electrophysiology were cultured in 35 mm dishes.
Onset and steady state block of hERG current was measured using a pulse pattern with fixed amplitudes (conditioning prepulse: +20 mV for 2 seconds; test pulse: −50 mV for 2 seconds) repeated at 10 second intervals, from a holding potential of −80 mV. Peak tail current was measured during the 2 second step to −50 mV. A steady state was maintained for at least 30 seconds before applying the test compound or the positive control. Peak tail current was monitored until a new steady state was achieved. Test compound concentrations were applied cumulatively in ascending order without washout between applications.
Data acquisition and analysis was performed using the suite of pCLAMP (Vre. 8.2) programs (Axon Instruments, Union City, Calif.). Steady state was defined by the limiting constant rate of change with time (linear time dependence). The steady state before and after application of the test or control compounds was used to calculate the percentage of current inhibited at each concentration. […] Nonlinear squares fits were solved with the Solver add-in for Excel 2000 (Microsoft, Redmond, Wash.).
Multiple compounds of the invention were tested for their effects on hERG currents. The compounds tested were: ARM036-Na, ARM047, ARM048, ARM050, ARM057, ARM064, ARM074, ARM075, ARM076, ARM077, ARM101, ARM102, ARM103, ARM104, ARM106, ARM107 and ARM26. […] Electrophysiological recordings were made using the PatchXpress 7000 A (Molecular Devices) automatic parallel patch clamp system. […] The duration of exposure to each test concentration was 5 minutes.

hERG potassium current = hERG potassium current (Homo sapiens, UniProt Q12809); experiment: S107 specificity: hERG potassium current; settings: 500 nM
RyR1 = biological target: T2, RyR1 (Mus musculus, UniProt E9PZQ0); experiment: Analysis of ryanodine receptor complex from EDL after chronic exercise (immunoprecipitation, immunoblot); type: in vivo; settings: chronic exercise protocol
T2 construct: RyR1 was immunoprecipitated from soleus muscle homogenates of mice following 21 days of exercise; from tissue; host or cells: mouse hind-limb skeletal muscle (soleus, EDL; SR microsomes for bilayer recording)
Method: Analysis of Ryanodine Receptor Complex: 10 mg muscle samples were isotonically lysed. […] The samples were incubated with protein A Sepharose beads (Amersham Pharmacia) at 4° C. for 1 h, after which the beads were washed three times with buffer. Proteins were separated on SDS-PAGE gels (4-20% gradient) and transferred onto nitrocellulose membranes overnight (SemiDry transfer blot, Bio-Rad). After incubation with blocking solution (LICOR Biosciences, Lincoln Nebr.) to prevent non-specific antibody binding and a wash in Tris-buffered saline with 0.1% Tween-20, membranes were incubated for 1-2 h at room temperature with primary antibodies anti-calstabin (1:2500 in blocking buffer), anti-RyR (5029, 1:5,000), or anti-phospho-RyR2-pSer2809 (1:5000), which detects PKA-phosphorylated mouse RyR1-pSer2844 and RyR2-pSer2808, anti-PDE4D3 (1:1000). After three washes, membranes were incubated with infrared labeled secondary antibodies (1:10,000 dilution, LICOR Biosystems). Band densities were quantified using the Odyssey Infrared Imaging System (LICOR Biosciences).

calpain = experiment: Calpain activity assay in EDL homogenates of chronically exercised mice; type: in vivo, mouse
Method: Calpain and Creatine Kinase Assays: Tissue calpain activities were measured using a calpain activity assay kit (Calbiochem, San Diego, Calif.) (FIG. 42B). This assay is based on the degradation of the fluorescent peptide substrate Suc-LLVY-AMC (Calbiochem). Muscle homogenates were diluted to a final concentration of 600 μg/ml and the calpain activity in the homogenate was determined as per manufactures instructions. Plasma creatine kinase (CK) activity was assayed using the regent kit from Pointe Scientific, Inc. (Canton, Mich.) (FIG. 42A). Plasma samples (duplicates, 5 μl each) were added to 200 μl of CK reagent and the change in absorbance at 340 nm was recorded over 4 minutes using a plate reader. The average absorbance change per minute was used to determine the CPK levels as per manufacturer's instructions.
Reduced calpain activation in muscle tissue and reduced muscle tissue damage due to calstabin1 rebinding: One possible mechanism by which calcium released by leaky RyR1 channels impairs exercise performance is the activation of a member of the calpain family of Ca^2+-dependent neutral proteases, which are known to be responsible for muscle damage in a number of pathophysiological states. […] Calpain activity in muscle homogenates was assessed by means of the degradation of the synthetic calpain substrate Suc-LLVY-AMC, which fluoresces upon cleavage by calpain.

RyR = RyR immunoprecipitation from whole brain microsomes of exercised mice; type: in vivo, mouse; settings: 21 days
Method: Tissue lysates were prepared by homogenizing the tissue (e.g., brain, cardiac, muscle) with Tissuemiser in 0.7 ml lysis buffer (pH 7.4, 10 mM HEPES, 1 mM EDTA, 20 mM NaF, 2 mM Na3 VO4, 320 mM sucrose, and protease inhibitors) and centrifuged for 15 min at 4,000×g at 4° C. The supernatant was then centrifuged for 15 min at 10,000×g at 4° C. For brain homogenates, the supernatant was centrifuged at 50,000×g at 4° C. for 30 minutes, and the pellet (microsomes) was resuspended in homogenization buffer which was supplemented with 0.9% NaCl. For brain tissue, the resuspended pellet was used for immunoprecipitation of RyR. For cardiac and muscle tissue homogenates, the supernatant of the 10,000×g spin was used for immunoprecipitation of the RyR. Protein concentrations were measured by Bradford protein assay. The sample was frozen at −80° C. until use.
100 μg of microsomes were brought to a volume of 500 μl with modified RIP A buffer (50 mM Tris-HCl (PH 7.4), 0.9% NaCl, 5.0 mM NaF, 1.0 mM Na3VO4, 0.5% TritonX100, and protease inhibitors). […] The sample was incubated with 40 μl of Protein A Sepharose beads and rotated for 1 hr at 4° C. […]
Ryanodine receptor (types 1 and 2) was immunoprecipitated from whole brain microsomes. Immunoprecipitates were separated by 4-20% PAGE and analyzed for total RyR, PKA phosphorylated RyR, and calstabin.

T1 sequence (Q12809 whole entry): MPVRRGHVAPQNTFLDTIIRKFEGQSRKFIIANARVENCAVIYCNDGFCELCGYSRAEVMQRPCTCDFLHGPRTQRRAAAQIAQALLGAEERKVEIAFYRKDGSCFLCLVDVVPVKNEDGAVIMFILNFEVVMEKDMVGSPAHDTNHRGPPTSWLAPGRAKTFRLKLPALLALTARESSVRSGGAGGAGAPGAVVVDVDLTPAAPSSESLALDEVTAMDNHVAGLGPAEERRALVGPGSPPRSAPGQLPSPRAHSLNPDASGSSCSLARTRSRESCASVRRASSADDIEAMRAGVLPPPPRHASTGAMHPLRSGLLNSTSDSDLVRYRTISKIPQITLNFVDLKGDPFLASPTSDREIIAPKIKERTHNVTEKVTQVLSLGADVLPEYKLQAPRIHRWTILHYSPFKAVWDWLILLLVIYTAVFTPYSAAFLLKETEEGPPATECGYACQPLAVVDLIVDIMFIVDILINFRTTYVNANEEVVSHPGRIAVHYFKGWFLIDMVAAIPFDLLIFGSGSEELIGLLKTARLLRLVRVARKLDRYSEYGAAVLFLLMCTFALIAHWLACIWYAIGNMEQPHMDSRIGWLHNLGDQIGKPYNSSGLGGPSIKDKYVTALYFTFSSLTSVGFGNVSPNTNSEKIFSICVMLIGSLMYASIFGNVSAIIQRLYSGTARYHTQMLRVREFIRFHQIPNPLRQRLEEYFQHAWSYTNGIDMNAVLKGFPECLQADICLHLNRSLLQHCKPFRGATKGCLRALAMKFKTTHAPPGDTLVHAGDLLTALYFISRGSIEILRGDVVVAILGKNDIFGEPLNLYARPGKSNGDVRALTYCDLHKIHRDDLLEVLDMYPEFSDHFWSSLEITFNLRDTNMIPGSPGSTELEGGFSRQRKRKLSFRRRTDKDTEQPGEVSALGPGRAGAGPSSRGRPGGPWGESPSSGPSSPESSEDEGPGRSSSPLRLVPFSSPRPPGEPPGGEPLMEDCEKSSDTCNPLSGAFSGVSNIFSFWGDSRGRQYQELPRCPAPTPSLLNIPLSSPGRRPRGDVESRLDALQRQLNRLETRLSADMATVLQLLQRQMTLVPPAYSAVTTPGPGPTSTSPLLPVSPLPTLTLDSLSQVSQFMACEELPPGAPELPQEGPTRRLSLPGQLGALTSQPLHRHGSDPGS
Sequence of hERG (Q12809 whole entry, the tested form may be a part): as the sequence (Q12809 whole entry) above
Sequence of hERG potassium current (Q12809 whole entry): as above

COc1ccc2c(c1)CN(C(=O)C(=O)O)CCS2 [S36]
plasma levels preventing exercise-induced sudden cardiac death compared with JTV-519 (FKBP12.6+/− mice; mouse, in vivo): lower plasma levels compared with JTV-519 | cardiac arrhythmias and sudden cardiac death (FKBP12.6+/− mice; plasma level 0.02 μM): prevent | cardiac arrhythmias and sudden cardiac death (FKBP12.6+/− mice; plasma level 1 μM): prevent | inhibition at 10 µM (hERG; 10 μM, read-out: Mean percent inhibition of hERG current): 0.7% | inhibition at 100 µM (hERG; 100 μM, read-out: Mean percent inhibition of hERG current): 0.9% | inhibition at 100 µM (hERG; highest concentration tested (100 μM), read-out: hERG current inhibition at the highest concentration tested): < 50% | block of HERG K+ channel (IKr) (hERG current [1]): does not block | effect on hERG outward tail current (hERG current [1]; 100 μM): minimally reduced

COc1ccc2c(c1)CN(C)CCS2 [S107]
Mean % hERG Inhibition (hERG current [2]; 0.01 μM): 2.9% | Individual Data (% Inhibition) (hERG current [2]; 0.01 μM, listed as ARM107, 0.01 µM): 1.7% and 4.0% | Mean % hERG Inhibition (hERG current [2]; 0.1 μM): 4.0% | Individual Data (% Inhibition) (hERG current [2]; 0.1 μM, listed as ARM107, 0.1 µM): 3.1% and 4.8% | Mean % hERG Inhibition (hERG current [2]; 1 μM): 6.2% | Individual Data (% Inhibition) (hERG current [2]; 1 μM, listed as ARM107, 1 µM): 2.0% and 10.4% | Mean % hERG Inhibition (hERG current [2]; 10 μM): 32.1% | Individual Data (% Inhibition) (hERG current [2]; 10 μM, listed as ARM107, 10 µM): 24.2% and 39.9% | hERG current inhibition at the highest concentration tested (hERG current [2]; highest concentration tested (10 μM)): less than 50% | effect on hERG potassium current (hERG potassium current): not to affect | Calstabin1 depletion from RyR1 (RyR1): nearly entirely reversed | Calpain activity in EDL homogenates (calpain): significantly reduced | binding of calstabin to RyR in whole brain microsomes (RyR): restores the binding of calstabin to RyR
